In patent US20210189342A1, “COMPOSITIONS AND METHODS FOR MODULATING MONOCYTE AND MACROPHAGE INFLAMMATORY PHENOTYPES AND IMMUNOTHERAPY USES THEREOF” (Verseau Therapeutics, Inc., priority 2018, published 2021) one finds IC50 data, which are given here for 27 substances.

pIC50: −log10 of the molar value. Some results are limits rather than exact numbers.

The subject of the first series is LILRB2. Description: siRNA dose response, LILRB2 mRNA knockdown, Dual-Glo Luciferase Assay. In kind it is cell-based, human. To be noted: Hepa1-6 + reporter plasmid, 24 hr. The method, then: (§1) Dose response curves for siRNAs were generated in vitro using a variety of cell lines according to Table 4.
(§2) Briefly, cells were seeded in 96-well plates and reverse transfected with siRNA, Lipofectamine® 2000 (0.5 uL/well; ThermoFisher), and, in some cases, a reporter plasmid (50 ng/well). The reporter plasmid (psiCHECK™-2, Promega) encoded both firefly luciferase and the gene of interest fused to renilla luciferase; silencing of the gene of interest results in proportional silencing of renilla luciferase but leaves firefly luciferase unaffected as an internal control.
(§3) After 24 hr incubation at 37° C., mRNA knockdown was measured using an endpoint assay. For targets without a reporter plasmid, a branched DNA (bDNA) assay was performed according to the manufacturer's instructions (QuantiGene® Singleplex Gene Expression Assay, ThermoFisher) to measure both the target gene and GAPDH (housekeeping gene) mRNA. Data are plotted as siRNA concentration (nM) vs. remaining mRNA (ratio of target gene to GAPDH, normalized to mock siRNA-transfected cells). For targets with a reporter plasmid, a Dual-Glo® Luciferase Assay was performed according to the manufacturer's instructions (Promega) to measure firefly and renilla luciferase expression. Data are plotted as siRNA concentration (nM) vs. remaining mRNA (ratio of renilla to firefly luminescence, normalized to mock siRNA-transfected cells).
(§4) For all dose response curves, a 4-parameter logistic model was applied to determine the IC50 of each siRNA sequence (Table 5 and FIG. 2). Data shown in Table 5 and FIG. 2 represent the mean of quadruplicates, +/−standard deviation.
In general, pIC50 refers to the IC50 on a negative log10 scale, so that one unit is a factor of ten. In the case of “XD-10590: siRNA targeting LILRB2 (sense 5'-caGcAuCuuGGAuuAcAcsa-3'; antisense 5'-dTGUGuAAUCcAAGAUGCUGusu-3'; RNA with 2'-O-methyl and phosphorothioate modifications, case key not given here, as printed in the source, key not given here)”, the pIC50 is 10.17. On to “XD-10591: siRNA targeting LILRB2 (sense 5'-ggAuAcGAccAGAgcuugsa-3'; antisense 5'-dTCAAGCUCUGGUCGuAUccusu-3'; RNA with 2'-O-methyl and phosphorothioate modifications, case key not given here, as printed in the source, key not given here)”, for which the pIC50 was 10.14.

The test system of a further series is TNFAIP8L2. Description: siRNA dose response, TNFAIP8L2 mRNA knockdown, bDNA Assay. To be noted: THP-1, 24 hr. Format: cell-based, human. As for the experimental part: as §1, §2, §3, §4
In turn, “XD-09760: siRNA targeting TNFAIP8L2 (sense 5'-ggAccAGGccGuGaucucudTsdT-3'; antisense 5'-AGAGAUcACGGCCUGGUCCdTsdT-3'; RNA with 2'-O-methyl and phosphorothioate modifications, case key not given here, as printed in the source, key not given here)” showed a pIC50 of 10.24. Still for that read-out and setting: in the case of “XD-09761: siRNA targeting TNFAIP8L2 (sense 5'-ggucAGGuGGAGAucucuudTsdT-3'; antisense 5'-AAGAGAUCUCcACCUGACCdTsdT-3'; RNA with 2'-O-methyl and phosphorothioate modifications, case key not given here, as printed in the source, key not given here)” it was 9.15; in that of “XD-09762: siRNA targeting TNFAIP8L2 (sense 5'-uuuAAuGuAucGcuAccAAdTsdT-3'; antisense 5'-UUGGuAGCGAuAcAUuAAAdTsdT-3'; as printed in the source, key not given here)”, 9.65; in that of “XD-09764: siRNA targeting TNFAIP8L2 (sense 5'-cguuGcGcuGGAAgGAAuudTsdT-3'; antisense 5'-AAUUCCUUCcAGCGcAACGdTsdT-3'; as printed in the source, key not given here)”, 8.53. The same measure, in the same setting: the same measure for “XD-09765: siRNA targeting TNFAIP8L2 (sense 5'-cuGcGcGAGGcGcaAuAcAdTsdT-3'; antisense 5'-UGuAUUGCGCCUCGCGcAGdTsdT-3'; RNA with 2'-O-methyl and phosphorothioate modifications, case key not given here, as printed in the source, key not given here)”: 10.64.

For the substance “XD-09766: siRNA targeting TNFAIP8L2 (sense 5'-cccucGAuGuAcAuAGcuudTsdT-3'; antisense 5'-AAGCuAUGuAcAUCGAGGGdTsdT-3'; RNA with 2'-O-methyl and phosphorothioate modifications, case key not given here, as printed in the source, key not given here)”, the pIC50 was 9.90. The same measure, in the same setting: the same measure for “XD-09768: siRNA targeting TNFAIP8L2 (sense 5'-aaAucAAucAuGuuAcAcudTsdT-3'; antisense 5'-AGUGuAAcAUGAUUGAUUUdTsdT-3'; RNA with 2'-O-methyl and phosphorothioate modifications, case key not given here, as printed in the source, key not given here)”: 9.45; for “XD-09796: siRNA targeting TNFAIP8L2 (sense 5'-gcAcAuAGcAAGcuGAAcudTsdT-3'; antisense 5'-AGUUcAGCUUGCuAUGUGCdTsdT-3'; RNA with 2'-O-methyl and phosphorothioate modifications, case key not given here, as printed in the source, key not given here)”: 7.94.

The subject of the next series is SELPLG. Description: siRNA dose response, SELPLG mRNA knockdown, bDNA Assay. In kind it is cell-based, human. The settings on record: THP-1, 24 hr. The method, then:
as §1, §2, §3, §4
In the case of “XD-09268: siRNA targeting SELPLG (sense 5'-ccAAGGGcAGAccuuucuudTsdT-3'; antisense 5'-AAGAAAGGUCUGCCCUUGGdTsdT-3'; RNA with 2'-O-methyl and phosphorothioate modifications, case key not given here, as printed in the source, key not given here)”, the pIC50 was 9.33.

The next series has as its system SPI1. Description: siRNA dose response, SPI1 mRNA knockdown, bDNA Assay. Format: cell-based, human. To be noted: THP-1, 24 hr. The method, then:
as §1, §2, §3, §4
With “XD-09780: siRNA targeting SPI1 (sense GGAUCUAUACCAACGCCAATT; antisense UUGGCGUUGGUAUAGAUCCTT; 2'-O-methyl and phosphorothioate modified, lower-case key not given here)”, the negative-log IC50 (pIC50) is 8.57.

Turning to “XD-09781: siRNA targeting SPI1 (sense CGCCAAACGCACGAGUAUUTT; antisense AAUACUCGUGCGUUUGGCGTT; 2'-O-methyl and phosphorothioate modified, lower-case key not given here)”, the pIC50 was 9.34.

“XD-09783: siRNA targeting SPI1 (sense GCGACAUGAAGGACAGCAUTT; antisense AUGCUGUCCUUCAUGUCGCTT; 2'-O-methyl and phosphorothioate modified, lower-case key not given here)” had a pIC50 of 8.96. Still for that read-out and setting: in the case of “XD-09785: siRNA targeting SPI1 (sense GUCUCAAGUCCGUAUGUAATT; antisense UUACAUACGGACUUGAGACTT; 2'-O-methyl and phosphorothioate modified, lower-case key not given here)” it was 9.32; in that of “XD-09786: siRNA targeting SPI1 (sense UCUCAAGUCCGUAUGUAAATT; antisense UUUACAUACGGACUUGAGATT; 2'-O-methyl and phosphorothioate modified, lower-case key not given here)”, 9.60. The same measure, in the same setting: the same measure for “XD-09787: siRNA targeting SPI1 (sense CCGUAUGUAAAUCAGAUCUTT; antisense AGAUCUGAUUUACAUACGGTT; 2'-O-methyl and phosphorothioate modified, lower-case key not given here)”: 10.12; for “XD-09788: siRNA targeting SPI1 (sense 5'-acAAGuAAAGuuAuucucAdTsdT-3'; antisense 5'-UGAGAAuAACUUuACUUGUdTsdT-3'; as printed in the source, key not given here)”: 8.88.

“XD-09789: siRNA targeting SPI1 (sense 5'-aaAGuuAuucucAauccAudTsdT-3'; antisense 5'-AUGGAUUGAGAAuAACUUUdTsdT-3'; as printed in the source, key not given here)” gave a pIC50 of 9.35.

For a further series, the system named is CD207. Description: siRNA dose response, CD207 mRNA knockdown, Dual-Glo Luciferase Assay. To be noted: Hepal-6 + reporter plasmid, 24 hr. Format: cell-based, human. The method, then:
as §1, §2, §3, §4
Take “XD-09240: siRNA targeting CD207 (sense 5'-guGAGcAcucAGGauGAcudTsdT-3'; antisense 5'-AGUcAUCCUGAGUGCUcACdTsdT-3'; as printed in the source, key not given here)”: the pIC50 is 9.17. With “XD-09241: siRNA targeting CD207 (sense 5'-gaAAAcAcccAcAguccGudTsdT-3'; antisense 5'-ACGGACUGUGGGUGUUUUCdTsdT-3'; as printed in the source, key not given here)”, the negative-log IC50 (pIC50) is 9.69.

Turning to “XD-09242: siRNA targeting CD207 (sense 5'-caGuccGuGcuGcauuAAudTsdT-3'; antisense 5'-AUuAAUGcAGcACGGACUGdTsdT-3'; as printed in the source, key not given here)”, the pIC50 was 11.05. The same measure, in the same setting: in the case of “XD-09243: siRNA targeting CD207 (sense 5'-guccGuGcuGcAuuAAucudTsdT-3'; antisense 5'-AGAUuAAUGcAGcACGGACdTsdT-3'; as printed in the source, key not given here)” it was 9.70. Same read-out and setting: the same measure for “XD-09245: siRNA targeting CD207 (sense 5'-gcGuucAGAuccAgAuGGudTsdT-3'; antisense 5'-ACcAUCUGGAUCUGAACGCdTsdT-3'; as printed in the source, key not given here)”: 10.70; for “XD-09246: siRNA targeting CD207 (sense 5'-aaAuAcAAAGAuccGGGcAdTsdT-3'; antisense 5'-UGCCCGGAUCUUUGuAUUUdTsdT-3'; as printed in the source, key not given here)”: 10.60; for “XD-09248: siRNA targeting CD207 (sense 5'-uauucuAcAGGuGguuucudTsdT-3'; antisense 5'-AGAAACcACCUGuAGAAuAdTsdT-3'; as printed in the source, key not given here)”: over 11.30. Turning to “XD-09249: siRNA targeting CD207 (sense 5'-uauAGuGccGAGcaGuucudTsdT-3'; antisense 5'-AGAACUGCUCGGcACuAuAdTsdT-3'; RNA with 2'-O-methyl and phosphorothioate modifications, case key not given here, as printed in the source, key not given here)”, the pIC50 is 9.82.
